Test results taken from US7186831B2, “5-halo-2-alkyl[1,2,4]triazolo[1,5-a]pyrimidin-7-amines” (priority 2001, dated 2007).

test: log P by HPLC; type: physicochemical; conditions: EEC directive 79/831 Annex V. A8 by HPLC (gradient method, acetonitrile/0.1% aqueous phosphoric acid)

logP	Structure (SMILES)
3.18	Cc1nc2nc(Cl)c(-c3c(F)cccc3Cl)c(N3CCSCC3)n2n1 [compound 259]
3.99	Cc1nc2nc(Cl)c(-c3c(F)cccc3Cl)c(N3CCC(C)CC3)n2n1 [compound 262]
2.95	Cc1nc2nc(Cl)c(-c3c(F)cccc3Cl)c(NCC3CC3)n2n1 [compound 263]
3.14	CCC(C)Nc1c(-c2c(F)cccc2Cl)c(Cl)nc2nc(C)nn12 (stereo not shown) [compound 264]
3.29	CCN(CC1CCCO1)c1c(-c2c(F)cccc2Cl)c(Cl)nc2nc(C)nn12 (stereo not shown) [compound 268]
3.03	CCN(CCOC)c1c(-c2c(F)cccc2Cl)c(Cl)nc2nc(C)nn12 [compound 269]
3.26	C=CCN(C)c1c(-c2c(F)cccc2Cl)c(Cl)nc2nc(C)nn12 [compound 273]
3.68	Cc1nc2nc(Cl)c(-c3c(F)cccc3Cl)c(N(C)CC(C)C)n2n1 [compound 276]
3.14	Cc1nc2nc(Cl)c(-c3ccc(F)cc3F)c(N3CCCC3C)n2n1 (stereo not shown) [compound 280]
1.9	Cc1nc2nc(Cl)c(-c3ccc(F)cc3F)c(N3CCC(O)CC3)n2n1 [compound 282]
3.7	Cc1nc2nc(Cl)c(-c3ccc(F)cc3F)c(N3CCCCC3C)n2n1 (stereo not shown) [compound 285]
3.75	Cc1nc2nc(Cl)c(-c3ccc(F)cc3F)c(N3CCC(C)CC3)n2n1 [compound 287]
3.94	CCC1=CCN(c2c(-c3ccc(F)cc3F)c(Cl)nc3nc(C)nn23)CC1 [compound 290]
2.78	COC(=O)C1CCN(c2c(-c3ccc(F)cc3F)c(Cl)nc3nc(C)nn23)CC1 [compound 292]
3.49	Cc1nc2nc(Cl)c(-c3ccc(F)cc3F)c(N3CCC(C(F)(F)F)CC3)n2n1 [compound 293]
2.3	Cc1nc2nc(Cl)c(-c3ccc(F)cc3F)c(N3CCOCC3)n2n1 [compound 296]
2.97	Cc1nc2nc(Cl)c(-c3ccc(F)cc3F)c(N3CCSCC3)n2n1 [compound 297]
3.7	Cc1nc2nc(Cl)c(-c3ccc(F)cc3F)c(NC(C)CC(C)C)n2n1 (stereo not shown) [compound 301]
3.99	Cc1nc2nc(Cl)c(-c3c(F)cccc3Cl)c(N3CCCC(C)C3)n2n1 (stereo not shown) [compound 302]
3.01	Cc1nc2nc(Cl)c(-c3c(F)cccc3F)c(N3CC=CCC3)n2n1 [compound 308]
2.6	Cc1nc2nc(Cl)c(-c3c(F)cccc3F)c(N3CCC4(CC3)OCCO4)n2n1 [compound 309]
4.08	Cc1nc2nc(Cl)c(-c3c(F)cccc3F)c(N3CC(C)CC(C)C3)n2n1 (stereo not shown) [compound 310]
3.57	Cc1nc2nc(Cl)c(-c3c(F)cccc3F)c(N3CCCCC3C)n2n1 (stereo not shown) [compound 311]
3.64	Cc1nc2nc(Cl)c(-c3c(F)cccc3F)c(N3CCC(C)CC3)n2n1 [compound 313]

The next lines start with the compound.

Structure (SMILES)	logP
Cc1nc2nc(Cl)c(-c3c(F)cccc3Cl)c(NCC(F)(F)F)n2n1 [compound 260]	2.77
Cc1nc2nc(Cl)c(-c3c(F)cccc3Cl)c(N3CCC(C(F)(F)F)CC3)n2n1 [compound 261]	3.72
Cc1nc2nc(Cl)c(-c3c(F)cccc3Cl)c(N3CC=CCC3)n2n1 [compound 265]	3.33
Cc1nc2nc(Cl)c(-c3c(F)cccc3Cl)c(N3CCC(F)CC3)n2n1 [compound 266]	3.07
C=CCN(CC)c1c(-c2c(F)cccc2Cl)c(Cl)nc2nc(C)nn12 [compound 267]	3.59
CCOC(=O)CN(CC)c1c(-c2c(F)cccc2Cl)c(Cl)nc2nc(C)nn12 [compound 270]	3.14
C#CCN(C)c1c(-c2c(F)cccc2Cl)c(Cl)nc2nc(C)nn12 [compound 271]	2.77
CCOC(=O)CN(C)c1c(-c2c(F)cccc2Cl)c(Cl)nc2nc(C)nn12 [compound 272]	2.48
Cc1nc2nc(Cl)c(-c3c(F)cccc3Cl)c(N(C)Cc3ccco3)n2n1 [compound 274]	3.26
C=C(C)CN(C)c1c(-c2c(F)cccc2Cl)c(Cl)nc2nc(C)nn12 [compound 275]	3.63
CCCN(CC1CCCO1)c1c(-c2c(F)cccc2Cl)c(Cl)nc2nc(C)nn12 (stereo not shown) [compound 277]	3.72
Cc1nc2nc(Cl)c(-c3c(F)cccc3Cl)c(N3CCC(O)C3)n2n1 (stereo not shown) [compound 278]	2.02
Cc1nc2nc(Cl)c(-c3ccc(F)cc3F)c(N3CCCC3)n2n1 [compound 281]	2.74
Cc1nc2nc(Cl)c(-c3ccc(F)cc3F)c(N3CC=CCC3)n2n1 [compound 283]	3.11
Cc1nc2nc(Cl)c(-c3ccc(F)cc3F)c(N3CCC4(CC3)OCCO4)n2n1 [compound 284]	2.68
Cc1nc2nc(Cl)c(-c3ccc(F)cc3F)c(N3CCCC(C)C3)n2n1 (stereo not shown) [compound 286]	3.74
Cc1nc2nc(Cl)c(-c3ccc(F)cc3F)c(N3CCC(C)(C)CC3)n2n1 [compound 288]	4.01
CC(=O)C1CCN(c2c(-c3ccc(F)cc3F)c(Cl)nc3nc(C)nn23)CC1 [compound 289]	2.5
CC1=CCCN(c2c(-c3ccc(F)cc3F)c(Cl)nc3nc(C)nn23)C1 [compound 291]	3.49
CC(=O)NC1CCN(c2c(-c3ccc(F)cc3F)c(Cl)nc3nc(C)nn23)CC1 [compound 294]	1.85
Cc1nc2nc(Cl)c(-c3ccc(F)cc3F)c(N3CCCCC3)n2n1 [compound 295]	3.32
Cc1ccc(Nc2c(-c3ccc(F)cc3F)c(Cl)nc3nc(C)nn23)cc1 [compound 298]	3.05
Cc1nc2nc(Cl)c(-c3ccc(F)cc3F)c(Nc3ccc(F)cc3)n2n1 [compound 299]	2.7
Cc1nc2nc(Cl)c(-c3ccc(F)cc3F)c(N3CCc4ccccc4C3)n2n1 [compound 300]	3.28
Cc1nc2nc(Cl)c(-c3c(F)cccc3F)c(N3CCC(O)C3)n2n1 (stereo not shown) [compound 303]	1.73
Cc1nc2nc(Cl)c(-c3c(F)cccc3F)c(N3CCCC3C)n2n1 (stereo not shown) [compound 304]	3.02
CC(=O)NC1CCN(c2c(-c3c(F)cccc3F)c(Cl)nc3nc(C)nn23)C1 (stereo not shown) [compound 305]	1.64
Cc1nc2nc(Cl)c(-c3c(F)cccc3F)c(N3CCC(N(C)C)C3)n2n1 (stereo not shown) [compound 306]	1.18
Cc1nc2nc(Cl)c(-c3c(F)cccc3F)c(N3CCC(O)CC3)n2n1 [compound 307]	1.83
Cc1nc2nc(Cl)c(-c3c(F)cccc3F)c(N3CCCC(C)C3)n2n1 (stereo not shown) [compound 312]	3.63

same assay, conditions: HPLC, gradient method, acetonitrile/0.1% aqueous phosphoric acid; EEC directive 79/831 Annex V. A8

logP	Structure (SMILES)
3.7	CC1=CCCN(c2c(-c3ccccc3Cl)c(Cl)nc3nc(C)nn23)C1 [compound 231]
3.63	Cc1nc2nc(Cl)c(-c3ccccc3Cl)c(N3CCC(C(F)(F)F)CC3)n2n1 [compound 232]
3.48	Cc1nc2nc(Cl)c(-c3ccccc3Cl)c(N3CCCCC3)n2n1 [compound 233]
2.75	C#CCN(C)c1c(-c2ccccc2Cl)c(Cl)nc2nc(C)nn12 [compound 237]
3.2	Cc1nc2nc(Cl)c(-c3ccccc3Cl)c(N(C)Cc3ccco3)n2n1 [compound 238]
3.11	CCOC(=O)CN(CC)c1c(-c2ccccc2Cl)c(Cl)nc2nc(C)nn12 [compound 240]
2.48	Cc1nc2nc(Cl)c(-c3c(F)cccc3Cl)c(N3CCOCC3)n2n1 [compound 246]
2.8	C=C(C)CNc1c(-c2c(F)cccc2Cl)c(Cl)nc2nc(C)nn12 [compound 250]
2.95	Cc1nc2nc(Cl)c(-c3c(F)cccc3Cl)c(N3CCCC3)n2n1 [compound 251]
3.33	CCN(CC)c1c(-c2c(F)cccc2Cl)c(Cl)nc2nc(C)nn12 [compound 252]
2.11	Cc1nc2nc(Cl)c(-c3c(F)cccc3Cl)c(NCC#N)n2n1 [compound 253]
3.29	Cc1nc2nc(Cl)c(-c3c(F)cccc3Cl)c(NC3CCCC3)n2n1 [compound 255]
2.42	COCCNc1c(-c2c(F)cccc2Cl)c(Cl)nc2nc(C)nn12 [compound 257]
2.77	Cc1nc2nc(Cl)c(-c3c(F)cccc3Cl)c(NC3CC3)n2n1 [compound 258]

Second part, the compound before the results:

Structure (SMILES)	logP
Cc1nc2nc(Cl)c(-c3ccccc3Cl)c(N3CC=CCC3)n2n1 [compound 228]	0.75
Cc1nc2nc(Cl)c(-c3ccccc3Cl)c(N3CCCC(C)C3)n2n1 (stereo not shown) [compound 229]	3.92
Cc1nc2nc(Cl)c(-c3ccccc3Cl)c(N3CCC(C)CC3)n2n1 [compound 230]	3.94
Cc1nc2nc(Cl)c(-c3ccccc3Cl)c(N3CCOCC3)n2n1 [compound 234]	2.38
Cc1nc2nc(Cl)c(-c3ccccc3Cl)c(N3CCSCC3)n2n1 [compound 235]	3.09
COCCNc1c(-c2ccccc2Cl)c(Cl)nc2nc(C)nn12 [compound 236]	2.3
CCN(CC1CCCO1)c1c(-c2ccccc2Cl)c(Cl)nc2nc(C)nn12 (stereo not shown) [compound 239]	3.23
CCCCN(CC)c1c(-c2ccccc2Cl)c(Cl)nc2nc(C)nn12 [compound 241]	4.1
CCN(CC)c1c(-c2ccccc2Cl)c(Cl)nc2nc(C)nn12 [compound 242]	3.24
CCCN(CC1CC1)c1c(-c2ccccc2Cl)c(Cl)nc2nc(C)nn12 [compound 243]	4.07
CCCN(CC1CCCO1)c1c(-c2ccccc2Cl)c(Cl)nc2nc(C)nn12 (stereo not shown) [compound 244]	3.7
Cc1nc2nc(Cl)c(-c3ccccc3Cl)c(N3CCC(O)C3)n2n1 (stereo not shown) [compound 245]	0.75
CCCCN(CC)c1c(-c2ccccc2Cl)c(Cl)nc2nc(C)nn12 [compound 247]	4.18
Cc1nc2nc(Cl)c(-c3c(F)cccc3Cl)c(NCC(C)C)n2n1 [compound 248]	3.14
Cc1nc2nc(Cl)c(-c3c(F)cccc3Cl)c(NCC(C)(C)C)n2n1 [compound 249]	3.59
Cc1nc2nc(Cl)c(-c3c(F)cccc3Cl)c(N3CCCCC3)n2n1 [compound 254]	3.55
Cc1nc2nc(Cl)c(-c3c(F)cccc3Cl)c(NC(C)C)n2n1 [compound 256]	2.77
